According to the NIST ThermoML archive (doi:10.1021/je101144k):

Columns and labels:
[1] = wn = mass fraction of the nth substance listed; conditions: 353.15 K, 101 kPa, Liquid; for mass density: Pycnometric method
[2] = molar heat capacity at constant pressure; wn = mass fraction of the nth substance listed; conditions: 101 kPa, Liquid, Small sample (50 mg) DSC

N[C@@H](CO)C(=O)[O-].[K+] [potassium L-serinate] + O
[1]
Conditions	mass density [kg/m3]	viscosity [mPa·s]
w1 = 0.072	1007.8	0.494
w1 = 0.143	1039.6	0.564
w1 = 0.286	1106	0.732
w1 = 0.43	1169.6	1.255
w1 = 0.573	1229.6	1.919

molar heat capacity at constant pressure [J/K/mol], [2]
Conditions	w1 = 0.072	w1 = 0.143	w1 = 0.286	w1 = 0.43	w1 = 0.573
303.15 K	74.59	76.59	80.47	88.33	98.9
308.15 K	75.17	77.62	81.19	88.91	99.62
313.15 K	75.56	78.03	81.67	89.77	100.35
318.15 K	76.13	78.65	82.15	90.35	101.07
323.15 K	76.52	79.06	82.63	91.22	101.43
328.15 K	76.9	79.47	83.35	91.79	102.15
333.15 K	77.29	80.09	83.83	92.37	102.51
338.15 K	77.67	80.5	84.31	92.95	102.87
343.15 K	78.06	81.12	84.79	93.24	103.23
348.18 K	78.25	81.53	85.27	93.81	103.23
353.15 K	78.44	81.74	85.51	94.1	104.68
